Patent US20030187261A1, “Purine derivatives, process for their preparation and use thereof” (priority 2000, published 2003)
Read-outs that look alike come from different tables or passages of the source.

What was measured:
MPF activity = experiment: M-phase promoting factor inhibition in metaphase-arrested Xenopus egg extracts; assay type: biochemical; conditions: 1.5 h after addition
Experimental: (§1) Metaphase-arrested Xenopus egg extracts were prepared as described previously by Blow “J. Cell Biol.” 1993, 122:993 and stored in liquid nitrogen. Demembranated Xenopus sperm nuclei were prepared as described by Blow & Laskey “Cell” 1986;47:577.
(§2) At concentrations of cdk inhibitors (see Table 6) ranging from 0.1-2 μM, chromosomes remained highly condensed and no nuclear envelope was visible. At 4-6 μM and higher concentrations, interphase nuclei appeared with partially decondensed chromatin and an intact nuclear envelope. […] For the inhibition effect to become detectable, the first 15-min incubation of the interphase extract is probably sufficient.

DNA synthesis = DNA synthesis in Xenopus egg extracts ([α-32P]dATP incorporation); assay type: biochemical; conditions: [α-32P]dATP incorporation after 3 h; read-out: Inhibition of DNA synthesis IC50
Experimental: as §1, §2

CDC2 = biological target: T1, CDC2 (Homo sapiens, UniProt P06493); experiment: p34cdc2 (CDC2) kinase inhibition assay, histone H1 substrate; assay type: biochemical; conditions: Table 5, CDC2 activity in cell free system
T1 construct: made in house; host or cells: Sf9 insect cells, baculovirus co-infection
T1 sequence (P06493 whole entry, species assumed): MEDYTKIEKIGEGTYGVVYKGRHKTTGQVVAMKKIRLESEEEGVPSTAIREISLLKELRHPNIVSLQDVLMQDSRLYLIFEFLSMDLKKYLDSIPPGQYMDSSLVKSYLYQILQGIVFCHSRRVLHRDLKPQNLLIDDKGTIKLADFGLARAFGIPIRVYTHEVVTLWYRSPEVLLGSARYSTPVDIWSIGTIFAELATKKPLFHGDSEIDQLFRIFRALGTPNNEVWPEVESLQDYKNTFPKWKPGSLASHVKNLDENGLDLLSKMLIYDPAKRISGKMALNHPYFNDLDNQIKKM
T1 sequence (P14635 whole entry partner, species assumed): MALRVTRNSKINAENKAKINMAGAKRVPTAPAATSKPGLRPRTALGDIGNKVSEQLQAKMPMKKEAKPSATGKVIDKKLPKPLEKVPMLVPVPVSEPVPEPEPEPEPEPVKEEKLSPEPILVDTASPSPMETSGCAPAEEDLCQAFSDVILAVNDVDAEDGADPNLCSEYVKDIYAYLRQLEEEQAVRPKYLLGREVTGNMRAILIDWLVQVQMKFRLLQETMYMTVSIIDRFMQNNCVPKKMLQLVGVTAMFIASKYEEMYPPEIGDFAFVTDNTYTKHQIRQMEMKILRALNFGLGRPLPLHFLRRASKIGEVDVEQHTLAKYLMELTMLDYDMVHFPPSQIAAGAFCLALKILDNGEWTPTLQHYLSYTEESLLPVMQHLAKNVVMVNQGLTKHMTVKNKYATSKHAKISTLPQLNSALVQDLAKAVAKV
Experimental: Cyclin-dependent kinases (p34^cdc2, p33^cdk2, p33^cdk4 and cyclins (cyclin B, E and DI) are produced in Sf9 insect cells coinfected with appropriate baculoviral constructs. The cells are harvested 68-72 hrs post infection in lysis buffer for 30 min on ice and the soluble fraction is recovered by centrifugation at 14.000 g for 10 min. The protein extract is stored at −80° C.
To carry out experiments on kinetics under linear conditions, the final point test system for kinase activity measurement is used. The kinase is added to the reaction mixture in such a way that linear activity is obtained with respect to the concentration of enzyme and with respect to time.
Inhibition of p33^cdk4 kinase is determined with Rb-GST (0.2 mg/ml) as the substrate. Kinase activity is determined at 30° C. in kinase buffer.
Tested compounds are usually dissolved to 100 mM solutions in DMSO, the final concentration of DMSO in reaction mixture never exceeds 1%. The controls contain suitable dilutions of DMSO. After 10 min, the addition of 3×SDS sample buffer stops the incubations. […] The measurement of kinase activity is done using digital image analysis. The kinase activity is expressed as a percentage of maximum activity, the apparent inhibition constants are determined by graphic analysis. Kinase buffer: 50 mM Hepes pH 7.4, 10 mM MgCl21 5 mM EGTA, 10 mM 2-glycerolphosphate,

[1] = test system: PHA-stimulated lymphocytes (PBMC); experiment: cell number of PHA-stimulated lymphocytes (PBMC), flow cytometry; assay type: cell-based, human; conditions: 96 hours, in the presence of IL-2
Experimental: Human peripheral blood mononuclear cells were isolated by density gradient (Ficoll-Hypaque) (LSM, ICN Biomedicals Inc.). PBMC were stimulated with 5 μg/ml phytohemaglutinin A (PHA) (Sigma) during 24-48 hours in IMDM supplemented with 10% FCS (IMDM/10% FCS) at 37° C. After washing off the PHA, PBMC were incubated with interleukin-2 (IL-2) (10 U/ml) (Genzyme).
(§3) Cells were plated at 10000 per well in 200 μl IMDM medium and incubated with 0-50 μM of the compounds of the invention (Table 5), by addition of the drugs directly to the culture medium and incubated at 37° C. for 96 hours. Absolute cell number was determined by addition of a known concentration of Fluoresbrite microspheres (FITC) (Polysciences, Inc.). The absolute number of cells per well was calculated as: {(total number of beads added per well)/(number of beads measured)}×(number of measured cells in the gate of interest). All analyses were performed with a FACScan (BD), using CELLQuest software (Becton Dickinson).
The novel compounds were tested for cytotoxicity on PHA-stimulated lymphocytes (PBMC), as one of the normal counterparts of the cell lines. Cells were grown for 96 hours in the presence of IL-2 and different concentrations of the novel compounds and cell number was counted on the flow cytometer.

[2] = test system: T-lymphocyte leukemia Molt3 cell line; experiment: cell growth of Molt3 cell line, flow cytometric cell count; assay type: cell-based, human; conditions: 96 hours of culture
Experimental: (§4) Cell lines: Human leukemic cell lines were obtained from the American Type Culture Collection (ATCC, Rockville, Md., USA). They were cultured in Iscove's Modified Dulbecco's Medium (IMDM) supplemented with 10% heat inactivated fetal calf serum (FCS), 200 U/ml penicillin, 200 μg/ml streptomycin and 1 μg/ml amphotericin B. Cells were cultured in a 5% CO2-95% air fully humidified incubator. For effects on clonogenic output, 1000 cells/well were plated in duplicate in methylcellulose (0.9%), supplemented with 20% FCS and cultured for 14 days.
as §3
The response of the myeloid leukemia KG1 and T-lymphocyte leukemia Molt3 cell lines to the cytostatic effect of the novel compounds was determined using the above-mentioned standardized bead suspension that was used to determine the absolute cell number by flow cytometric (FCM) measurement. Cells were grown in the presence of increasing concentrations of the compounds of the invention.

[3] = test system: CD34+ hematopoietic progenitors (HPC) from adult bone marrow; experiment: myeloid colony-forming unit (CFU) assay; assay type: cell-based, human; conditions: for IC50: 14 days, methylcellulose, total colony output
[4] = test system: adult bone marrow CD34+CD38- cells; experiment: pre-CFU assay; assay type: cell-based, human; conditions: for IC50: 14 day liquid culture, total clonogenic output after secondary methylcellulose culture
Description: […]. Cells with low-to-medium forward and low side scatter, highly positive green (CD34) fluorescence, and an orange (CD38) fluorescence signal lower than the mean fluorescence of cells labeled with an irrelevant isotype-matched control antibody+2 standard deviations were retained as CD34^+CD38^− cells and used in pre-CFU assays.
Pre-CFU assays were initiated by performing liquid cultures of CD34^+CD38^− cells in duplicate in 96-well flat-bottomed plates in IMDM/10% FCS, 1% bovine serum albumin (BSA), 100 U/ml IL-1, 200 U/ml IL-6, 30 U/ml IL-3 and 100 ng/ml stem cell factor (SCF). Pre-CFU cultures were initiated with 500 CD34^+CD38^− cells/well (200 μl). After 14 days of culture at 37° C. in 7.5% O2 and 5% CO2 in a fully humidified incubator, the number of cells in each well was counted. Subsequently, the cells were harvested, washed three times in IMDM/10% FCS, and plated in duplicate at 500 cells/well (1000 μl) in secondary methylcellulose CFU cultures as described for CFU assays.
Pre-CFU were cultured starting from adult bone marrow CD34^+CD38^− cells, that had been isolated using the FCM cell sorter. Novel compounds were added at different concentrations to the primary 14 day liquid culture. IC50 was calculated from dose-response curves from total clonogenic output after secondary methylcellulose culture (Table 5).

KG1 = experiment: clonogenic output of KG1 in methylcellulose; assay type: cell-based, human; conditions: 25 μM, 14 days
Experimental: as §4
Clonogenic output of KG1 was tested in methylcellulose with 25 μM of some of the novel compounds.

KG1 cells = experiment: apoptosis and cell cycle in KG1 cells (fluorescence microscopy, TUNEL); assay type: cell-based, human
Experimental: Nuclear morphology of the cells was analysed with the fluorochromes Hoechst 33342 (λEx max 346 nm; λEm max 460 nm) (Sigma) prepared in phosphate-buffered saline (PBS at 0.1 mg/ml, added to the culture medium at a final concentration of 2 μg/ml and ethidium bromide (EB) (λEx max 540 nm; λEm max 625 nm) (Sigma) prepared in PBS at 100 μg/ml and added to the culture medium at a final concentration of 2 μg/ml (Lizard, 1995). Hundred cells were counted for each sample and percentage of apoptosis was determined.
Control and novel compound-treated cell cultures were washed with PBS and fixed in […] (pH 7.4) for 15 minutes on ice. After washing in PBS, cells were permeabilized in 70% cold (−20° C.) ethanol and transferred to 4° C. for at least 1 hour. After rehydratation in PBS, cells were labeled with 50 μl/well TUNEL reaction mixture (Boehringer Mannheim). Cells were incubated in this solution at 37° C. for 40 minutes, washed in PBS and resuspended in 500 μl PBS containing 5 μg/ml EB and 0.1% RNAse. After 30 minutes of incubation at 4° C., green (FITC-dUTP) and red (EB-DNA) fluorescence of individual cells was measured on a FACscan flow cytometer (Gorczyca, 1993). Negative control (fixed and permeabilized cells incubated with 50 μl label solution per well without terminal transferase, instead of TUNEL reaction mixture) and positive control (fixed and permeabilized cells incubated with DNase I (100 μg/ml) that induces DNA strand breaks) were included in each experimental set-up.
Flow cytometric detection of apoptosis combined with DNA staining can identify apoptotic cells and simultaneously evaluate their position in the cell cycle. This technique was used to provide infomation about the possible cell cycle specific initiation of apoptosis by the tested compounds. If more than 2% of apoptotic cells were detected by the TUNEL method and the absolute number of acquired apoptotic events exceeded 2000, DNA content was simultaneously measured. Within the apoptotic population, analysis and calculation of the different cell cycle phases was carried out by an iterative curve fitting procedure (ModFit LT cell cycle analysis sofware from Verity software house, INC).
Viable, apoptotic, necrotic (=primary necrosis, not following apoptosis) and secondarily necrotic cells (=late apoptotis, evolving to necrosis) were scored differentially after 6, 12, 24, 48 and 72 hours of exposure to novel compounds. For the three products a different apoptosis-inducing pattern could be observed. Apoptosis induction occurs fast after incubation with P23 and P28 but slower after incubation with P27.
Flow cytometric detection of apoptosis and cell cycle analysis: The induction of apoptotic death of KG1 cells by the novel compounds was confirmed using the TUNEL reaction technique (FIG. 5). […] Incubation of KG1 cell line with P27 results in detectable apoptosis after 24 hours. Percentage of apoptotic cells in G0-G1 increases with time, while the number of apoptotic cells in S+G2/M phases decreases. […] After 6 and 12 hours of incubation the apoptotic population seems mainly to evolve from S phase.

[5] = test system: myeloid leukemia KG1 cell line; experiment: cell growth of KG1 cell line, flow cytometric cell count; conditions: for IC50: read-out: KGI IC50

SMILES | IC50 (MPF activity) [µM] | IC50 (DNA synthesis) [µM] | IC50 (CDC2) [µM] | IC50 ([2]; Homo sapiens, MOLT-3) [µM] | IC50 ([3]; Homo sapiens, 336 h) [µM] | IC50 ([4]; Homo sapiens, 336 h) [µM] | IC50 ([5]; Homo sapiens, KG-1, 96 h) [µM] | output of the different types of myeloid colonies (CFU-E, CFU-G and CFU-M) ([3]; scored differentially) | Colony output vs. control cultures without novel compound (KG1) [%] | also measured
CC(C)n1cnc2c(NCc3ccc(O)c(O)c3)nc(NCCCO)nc21 | 3.6 | 4.2 |  |  |  |  |  |  |  | 
CC[C@H](CCO)Nc1nc(NCc2ccc(O)c(O)c2)c2ncn(C(C)C)c2n1 | 2.8 | 3.5 |  |  |  |  |  |  |  | 
CC(C)n1cnc2c(NC(CO)c3ccccc3)nc(NCCCO)nc21 (racemic) | 1.5 | 1.4 |  |  |  |  |  |  |  | 

Now from value to molecule, other results behind:

IC50 (MPF activity) [µM] | IC50 (DNA synthesis) [µM] | IC50 (CDC2) [µM] | IC50 ([2]; Homo sapiens, MOLT-3) [µM] | IC50 ([3]; Homo sapiens, 336 h) [µM] | IC50 ([4]; Homo sapiens, 336 h) [µM] | IC50 ([5]; Homo sapiens, KG-1, 96 h) [µM] | SMILES | output of the different types of myeloid colonies (CFU-E, CFU-G and CFU-M) ([3]; scored differentially) | Colony output vs. control cultures without novel compound (KG1) [%] | also measured
 |  | > 100 | 14 ± 1.5 | > 50 | > 25 | 7 ± 2 | CC(C)n1cnc2c(NC(CO)c3ccccc3)nc(NCCCO)nc21 (racemic) [P27, 2-(3-hydroxypropylamino)-6-[(R,S)-(1-phenyl-2-hydroxyethyl)amino]-9-isopropylpurine] | significantly lower colony output | 8 | CC50 ([1]; Homo sapiens, Lymphocyte, read-out: Lymphocytes IC50): 8 ± 0.5 µM; CFU-M colony output ([3]; scored differentially): not significantly decreased; time of incubation after which apoptosis was detected (TUNEL) (KG1 cells; KG1): 24 h; speed of apoptosis induction (microscopic examination) (KG1 cells; KG1, 6-72 hours of exposure, FIG. 4): slower; apoptotic cells in G0-G1 phase versus control cells (KG1 cells; KG1, TUNEL with EB, FIG. 6): significant after 72 hours; cell number after 6 hours of exposure, wash and 7 days in drug-free medium ([5]; KG1, compared to control without novel compounds): (some) recovery of cell number
 |  |  | ≥ 51 | > 50 | > 25 | ≥ 51 | CC(C)=CCNc1nc(NCCO)nc2c1ncn2C [P3, 2-(2-hydroxyethylamino)-6-(2-isopentenylamino)-9-methylpurine] | no significant difference | 47 | 
 |  | > 200 |  |  |  |  | CSc1nc(NC(C)c2ccc(O)c(O)c2)c2ncn(C(C)C)c2n1 (stereo not shown) [P16] | no significant difference | 16 | IC50 [1]: 26.5 ± 2.8 µM; IC50 [2]: 37 ± 7.9 µM; IC50 [3]: > 50 µM; activity on pre-CFU compared with CFU [4]: more active on pre-CFU than on CFU; IC50 [4]: 16 µM; IC50 ([5]; 96 hours of culture): 23 ± 1.2 µM
